Data: the supplement of paper PMC10883282

Legend:
Experiment in all cases: relative viability vs DMSO control (72 h) (fraction); higher = more viable cells
A204 = test system: A204
Method in brief: (§1)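 Percent growth from ATPLite readings, averaged over up to triplicate wells, was used as relative viability. Sarcoma cell lines were seeded into 384-well plates for 80–90% confluence, dosed after 24 h, and kept 72 h at 37 °C, 5% CO2. Data were rescaled to a range where 1 is full and 0 is none.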

G401 = test system: G401
Method in brief: as §1

SYO-1 = test system: SYO-1
Method in brief: as §1

SW982 = test system: SW982
Method in brief: as §1

SW1353 = test system: SW1353
Method in brief: as §1

HT1080 = test system: HT1080
Method in brief: as §1

KHOS-NP = test system: KHOS-NP
Method in brief: as §1

SW684 = test system: SW684
Method in brief: as §1

RD-ES = test system: RD-ES
Method in brief: as §1

KHOS-240S = test system: KHOS-240S
Method in brief: as §1

SK-ES-1 = test system: SK-ES-1
Method in brief: as §1

SW872 = test system: SW872
Method in brief: as §1

C#Cc1cccc(Nc2ncnc3cc(OCCOC)c(OCCOC)cc23)c1 [Erlotinib]
Conditions | relative viability
A204, 0.00017 µM | 1.06
A204, 0.00051 µM | 1.13
A204, 0.00152 µM | 1.09
A204, 0.00457 µM | 1.09
A204, 0.01372 µM | 1.07
A204, 0.04115 µM | 1.1
A204, 0.1235 µM | 1.09
A204, 0.3704 µM | 1.09
A204, 1.111 µM | 1.01
A204, 3.333 µM | 0.822
A204, 10 µM | 0.546
G401, 0.00017 µM | 1.04
G401, 0.00051 µM | 1.05
G401, 0.00152 µM | 1.02
G401, 0.00457 µM | 1.04
G401, 0.01372 µM | 1.01
G401, 0.04115 µM | 1.03
G401, 0.1235 µM | 1.018
G401, 0.3704 µM | 1.05
G401, 1.111 µM | 1.016
G401, 3.333 µM | 0.9684
G401, 10 µM | 0.787
HT1080, 0.00017 µM | 1.09
HT1080, 0.00051 µM | 1.1
HT1080, 0.00152 µM | 1.09
HT1080, 0.00457 µM | 1.08
HT1080, 0.01372 µM | 1.09
HT1080, 0.04115 µM | 1.12
HT1080, 0.1235 µM | 1.11
HT1080, 0.3704 µM | 1.097
HT1080, 1.111 µM | 1.1
HT1080, 3.333 µM | 1.16
HT1080, 10 µM | 0.942
KHOS-240S, 0.00017 µM | 1.06
KHOS-240S, 0.00051 µM | 1.07
KHOS-240S, 0.00152 µM | 1.05
KHOS-240S, 0.00457 µM | 1.08
KHOS-240S, 0.01372 µM | 1.06
KHOS-240S, 0.04115 µM | 1.07
KHOS-240S, 0.1235 µM | 1.087
KHOS-240S, 0.3704 µM | 1.08
KHOS-240S, 1.111 µM | 1.062
KHOS-240S, 3.333 µM | 1.06
KHOS-240S, 10 µM | 0.949
KHOS-NP, 0.00017 µM | 1.11
KHOS-NP, 0.00051 µM | 1.092
KHOS-NP, 0.00152 µM | 1.11
KHOS-NP, 0.00457 µM | 1.11
KHOS-NP, 0.01372 µM | 1.11
KHOS-NP, 0.04115 µM | 1.1
KHOS-NP, 0.1235 µM | 1.095
KHOS-NP, 0.3704 µM | 1.1
KHOS-NP, 1.111 µM | 1.1
KHOS-NP, 3.333 µM | 1.086
KHOS-NP, 10 µM | 1.04
RD-ES, 0.00017 µM | 0.971
RD-ES, 0.00051 µM | 0.974
RD-ES, 0.00152 µM | 0.975
RD-ES, 0.00457 µM | 0.992
RD-ES, 0.01372 µM | 0.965
RD-ES, 0.04115 µM | 0.967
RD-ES, 0.1235 µM | 0.998
RD-ES, 0.3704 µM | 0.994
RD-ES, 1.111 µM | 0.987
RD-ES, 3.333 µM | 0.936
RD-ES, 10 µM | 0.691
SK-ES-1, 0.00017 µM | 1.048
SK-ES-1, 0.00051 µM | 1.04
SK-ES-1, 0.00152 µM | 1.08
SK-ES-1, 0.00457 µM | 1.07
SK-ES-1, 0.01372 µM | 1.09
SK-ES-1, 0.04115 µM | 1.07
SK-ES-1, 0.1235 µM | 1.05
SK-ES-1, 0.3704 µM | 1.03
SK-ES-1, 1.111 µM | 0.85
SK-ES-1, 3.333 µM | 0.567
SK-ES-1, 10 µM | 0.324
SW684, 0.00017 µM | 1.16
SW684, 0.00051 µM | 1.15
SW684, 0.00152 µM | 1.14
SW684, 0.00457 µM | 1.23
SW684, 0.01372 µM | 1.23
SW684, 0.04115 µM | 1.19
SW684, 0.1235 µM | 1.17
SW684, 0.3704 µM | 1.19
SW684, 1.111 µM | 1.2
SW684, 3.333 µM | 1.18
SW684, 10 µM | 1.05
SW872, 0.00017 µM | 1.11
SW872, 0.00051 µM | 1.12
SW872, 0.00152 µM | 1.14
SW872, 0.00457 µM | 1.11
SW872, 0.01372 µM | 1.07
SW872, 0.04115 µM | 1.1
SW872, 0.1235 µM | 1.11
SW872, 0.3704 µM | 1.06
SW872, 1.111 µM | 1.04
SW872, 3.333 µM | 0.822
SW872, 10 µM | 0.638
SW982, 0.00017 µM | 1.06
SW982, 0.00051 µM | 1.06
SW982, 0.00152 µM | 1.08
SW982, 0.00457 µM | 1.08
SW982, 0.01372 µM | 1.06
SW982, 0.04115 µM | 1.08
SW982, 0.1235 µM | 1.07
SW982, 0.3704 µM | 1.07
SW982, 1.111 µM | 0.9728
SW982, 3.333 µM | 0.689
SW982, 10 µM | 0.466
SW1353, 0.00017 µM | 1.02
SW1353, 0.00051 µM | 1.03
SW1353, 0.00152 µM | 1.043
SW1353, 0.00457 µM | 1.02
SW1353, 0.01372 µM | 1.04
SW1353, 0.04115 µM | 1.01
SW1353, 0.1235 µM | 0.955
SW1353, 0.3704 µM | 0.928
SW1353, 1.111 µM | 0.889
SW1353, 3.333 µM | 0.812
SW1353, 10 µM | 0.695
SYO-1, 0.00017 µM | 0.999
SYO-1, 0.00051 µM | 0.998
SYO-1, 0.00152 µM | 0.978
SYO-1, 0.00457 µM | 0.979
SYO-1, 0.01372 µM | 0.982
SYO-1, 0.04115 µM | 0.9892
SYO-1, 0.1235 µM | 0.967
SYO-1, 0.3704 µM | 0.991
SYO-1, 1.111 µM | 0.962
SYO-1, 3.333 µM | 0.92
SYO-1, 10 µM | 0.724
